US20220409696A1, “Heparin-Associated Polypeptides and Uses Thereof” (Juvena Therapeutics, Inc., priority 2021, published 2022)

Key:
[1] = system: 10 week old dystrophic mice (mdx); assay: D2-mdx Duchenne's muscular dystrophy model, 10 week old mice; type: in vivo; conditions: 150 ug/kg with 1.2 g/kg sodium butyrate subcutaneously every 24 hours, 14 days
Experimental: Between 3-6 weeks old, the skeletal muscle of mdx mice undergoes severe necrosis followed by an increase in the activation of satellite cells to promote muscle regeneration. Treatment with IGF2 fusion polypeptide described herein can improve the regeneration process and therefore muscle health. Mice were fed ad libitum and housed under controlled conditions of lighting (12-hour light/12-hour dark) and temperature (22-24° C.). Mice were allowed to acclimate for 3 days prior to the initiation of the experiment. During the acclimation period, the weight, forelimb and both limb grip strength as well as in vivo tetanic force were assessed to determine the baseline strength of each mouse. 10 week old dystrophic mice (mdx) were injected with the IGF2 fusion polypeptide with sodium butyrate subcutaneously for 14 days. At day 7, forelimb and both grip strength are measured as described in Example 4. BrdU was injected on days 12, 13 and 14. On days 13, 14 and 15, forelimb and both limb grip strength and in vivo tetanic force were tested, and an endurance test to determine max distance and max speed was performed using methods described in Example 4.
Mice were euthanized. The right tibialis anterior and gastrocnemius were collected, immersed in Tissue-TEK OCT and then flash frozen in a chilled isopentane bath precooled in liquid nitrogen and stored at −80° C. Tissue was sectioned and stained for Laminin to determine the cross sectional area (CSA) of muscle fibers, for eMyHC to measure new fiber formation and for BrdU to assess the proliferation rate. The left anterior tibialis and gastrocnemius were collected and flash frozen in liquid nitrogen for molecular analysis that include qPCR and western blot.

DM1 human myoblast = assay: Gene expression fold change in DM1 human myoblast; type: cell-based; conditions: IGF2 200 ng/mL
Experimental: Myoblasts were cultured 48 h in the presence of factors (BMP7 50 ng/mL, Butyrate 100 nM, IGF2 200 ng/mL).
Myoblasts were cultured 96 h in the presence of factors (IGF2 200 ng/mL). […] Myoblasts were cultured 48 h in the presence of factors (IGF2 200 ng/mL).
(§1) RNA was isolated from each well (RNeasy Mini Kit, Qiagen) and cDNA was obtained by reverse-transcription (High Capacity Reverse Transcription Kit, Thermo Fisher Scientific). Real-time quantitative PCR was performed using QuantStudio3 (Thermo Fisher).
(§2) IGF2 was tested individually for its ability to promote proliferation and/or fusion of human muscle progenitor cells from an individual with myotonic dystrophy type 1 (hMD)—a muscular dystrophy caused by mutations in the DMPK1 gene. The effect of IGF2 on myogenic activity was assayed in biological triplicate across a range of concentrations centered around expected physiological levels by adding each factor to hMD myoblasts for 72 hours with daily media changes (DMEM+2% horse serum) and a second pulse of factors at the first media change. After 72 or 96 hours, cells were pulsed for 2-5 hours with EdU (30 uM), ethanol fixed, stained with Hoescht 3342, immunostained for proliferation—as measured by the percent of cells staining positive for EdU (% EdU)-, and immunostained for differentiation—as measured by the increase in cellular area staining positive for embryonic myosin heavy chain (% eMyHC) relative to the negative controls, which received media and vehicle only. Wells were imaged on a Keyence BZ-100 at 4×, the images quantified in Cell Profiler, and the statistics were computed in R. Additionally, RNA was extracted from myoblast and select transcript abundances quantified by qPCR.

[2] = Pharmacokinetics after intravenous injection in mice; type: in vivo; conditions: mice 10-12 weeks old, dose 10 mg/kg (HSA-IGF2R61A), 600 ug/kg (IGF2), Non-Compartment Analysis
Experimental: Murine pharmacokinetics (PK) represents the absorption, distribution, metabolism, and elimination of drugs from the body. The pharmacokinetic profile of the therapeutic polypeptides were determined in mice (10-12 weeks old). Mice were fed ad libitum and housed under controlled conditions of lighting (12-hour light/12-hour dark) and temperature (22-24° C.). Mice were allowed to acclimate for 3 days prior to the initiation of the experiment. Intravenous (IV) injection in 10-12 weeks old mice. Engineered mitogenic polypeptides concentrations in the samples were measured by ELISA. Various pharmacokinetics will be calculated as well as the absorption/elimination dynamics following different routes of administration.

Aged human myoblasts = assay: Myogenic transcription factor expression in aged human myoblasts; type: cell-based; conditions: compared to fusion media
Experimental: as §1
Aged human myoblasts were cultured in well plates. […] Cells that had been cultured with IGF2 had increases in levels of MYOG at 48 hours and levels of MYOD at 72 hours.

DM1 human myoblast cells = assay: Proliferation (EdU) of DM1 human myoblast; type: cell-based; conditions: 72 h for proliferation
Experimental: FIG. 7A Bar graph of % EdU+ human myoblast (person) and FIG. 7B % area MyHC in response to IGF2. Myoblast were cultured 72 h for proliferation and 96 h for fusion in the presence of indicated factor. Mean∓S.D. Mean∓SD. Significant p-values (EdU: Vehicle˜IGF2: 6.8E-3, % eMyHC Area: Vehicle˜IGF2: 1.9E-4) (*p<0.05 by Students Two-Tailed T-test, n=3−6).
as §2, with “The effect of IGF2 on myogenic activity was assayed in biological triplicate across a range of concentrations centered around expected physiological levels by adding each factor to hMD myoblasts for 72 hours with daily media changes (DMEM+2% horse serum) and a second pulse of factors at the first media change.” left out, “qPCR. […]” for “qPCR.”

[3] = 48 h, BMP7 50 ng/mL, Butyrate 100 nM

Substance: IGF2: Human IGF2 polypeptide, amino acids 25 to 91 of SEQ ID NO. 32 (i.e. SEQ ID NO. 29)
- bothlimb grip strength [1]: effective at improving
- forelimb grip strength [1]: effective at improving
- muscle weight [1]: effective at improving
- total work [1]: effective at improving
- treadmill running distance [1]: effective at improving
- treadmill running time to exhaustion [1]: effective at improving
- ATP1B1 expression fold change compared to FM (vehicle) (DM1 human myoblast; 48 h): 3.018
- MYF5 myogenic gene expression fold change compared to FM (vehicle) (DM1 human myoblast; [3]): 0.730
- MYODI myogenic gene expression fold change compared to FM (vehicle) (DM1 human myoblast; [3]): 1.252
- MYOG myogenic gene expression fold change compared to FM (vehicle) (DM1 human myoblast; [3]): 2.972
- CKM expression fold change compared to vehicle (DM1 human myoblast; 96 h): 5.165
- MYH3 expression fold change compared to vehicle (DM1 human myoblast; 96 h): 14.833
- Half-life [2]: 2.85 h
- MYF5 −48 h, fold change (Aged human myoblasts; 48 h): 0.409
- MYOD1 −48 h, fold change (Aged human myoblasts; 48 h): 0.519
- MYF5 −72h, fold change (Aged human myoblasts; 72 h): 0.708
- MYOG −72 h, fold change (Aged human myoblasts; 72 h): 0.018
- EdU FC (DM1 human myoblast cells): 2.18
